Experimental data from paper PMC12564302, “Discovery of N-Hydroxypyridinedione-Based Inhibitors of HBV RNase H: Design, Synthesis, and Extended SAR Studies” (International Journal of Molecular Sciences, 2025).
In brackets after ≈: the same amount, converted by molar mass. Where two headings read alike, the source gives them in different places.

Experiments:
[1] = system: HBV replication in HepDES19 cells; settings: cited from earlier work
HepDES19 cells = settings: cited from earlier work
MTS cytotoxicity assay = format: cell-based; settings: human, HepDES19 cells, pH 7.4
Protocol: (§1) HepDES19 cells are a HepG2 cell-line derivative that has been stably transfected with an HBV genotype D genome containing a tetracycline repressible promoter. HepDES19 cells were maintained on collagen-coated plates in Dulbecco’s modified Eagle’s medium (DMEM/F12) (Cytiva Life Sciences, Marlborough, MA, USA) supplemented with 10% fetal bovine serum (FBS), streptomycin (100 µg/mL), and penicillin (100 IU/mL), and incubated at 37 °C with 5% CO2 and saturating humidity. Cells were cultured with 1 µg/mL tetracycline to inhibit the expression of the stably integrated HBV genome, and HBV replication was activated upon removal of tetracycline from the culture medium.
Cell viability was assessed using the CellTiter 96^TM Aqueous Non-Radioactive Cell Proliferation assay (MTS) (Promega, Madison, WI, USA) as described previously. HepDES19 cells were seeded in 96 well plates at 1 × 10^4 cells/well for 48 h. Cells were then incubated with serial diluted compound, with a final concentration of 1% DMSO, for 72 h. Following compound incubation, background absorbance values were subtracted, and the data were converted into percent cell viability. The cytotoxic concentration 50% (CC50) values were calculated using GraphPad Prism’s four-parameter log (inhibitor) versus response algorithm, with the bottom value set to zero. Three or more replicate assays were performed on different days.

[2] = Parallel artificial membrane permeability assay; format: in vitro ADME; settings: PAMPA, pH 7.4, PAMPA
Protocol: The evaluation of apparent passive permeability (Papp) at pH 7.4 was performed using a donor/acceptor cassette (Innovative Laboratory Products, Phoenix, AZ, USA and Sigma Aldrich, Burlington, MA, USA), which simulates the apical and basolateral sides of the small intestine epithelium, as previously described. An artificial membrane made of 1% w/v lecithin/dodecane was applied to the poly (vinylidene fluoride) (PVDF) membrane filter and allowed to dry. Following drying, compounds (200 µM) were diluted in buffer at pH 7.4 and added to the donor side of the cassette. The same pH buffer was added on the acceptor side of the cassette, after which it was assembled and incubated at room temperature with shaking at 250 rpm for 2 h, before reading the absorbance of 100 µL from the acceptor well on a plate reader between 230 and 700 nm. The Papp (cm/s) values for compounds were determined by normalizing to the compound absorbance at equilibrium using the peak absorbance point for each compound, buffer volume, incubation time, and membrane porosity. Two or more replicate assays were conducted on different days.

Solubility limit assay = format: physicochemical; settings: DMEM-F12 without phenol red with 10% FBS, pH 7.4, plasma or biological fluid, kinetic from dmso stock
Protocol: Solubility limits of compounds were tested as previously reported in DMEM-F12 without phenol red (Gibco, Grand Island, NY, USA) but with the media supplemented with 10% FBS (pH 7.4) to mimic cell culture experiments. In a 384-well optically clear plate, compounds were serially diluted in pH 7.4 buffer (upper limit 200 µM, DMSO 1%) then read at 620 nm. Solubility limits were determined by plotting compound concentration (µM) against optical density (OD) and identifying an inflexion point. The inflexion point is defined by a substantial increase in OD brought on by increasing turbidity, and the compound concentration at this point is known as the solubility limit. Each compound had at least two replicate assays performed on different days.

[3] = system: HBV replication in HepDES19 cells; test: qPCR HBV replication inhibition assay; format: cell-based, HBV genotype D; settings: 72 h, (+) polarity DNA strand, pH 7.4, read-out: EC50
Protocol: as §1
HBV replication inhibition in HepDES19 cells was assessed using a strand-preferential quantitative PCR assay as previously described. HepDES19 cells were seeded in 96 well plates at 4 × 10^4 cells/well for 48 h followed by the addition of serial diluted compound with a final concentration of 1% DMSO for 72 h, after which cells were lysed, and qPCR was performed as described in Li et al.. Effective concentration 50% (EC50) values were calculated from data for the (+) polarity DNA strand data using GraphPad Prism version 10’s four-parameter log (inhibitor) versus response algorithm, with the bottom value set to zero. Three or more replicate assays were performed on different days.

[4] = system: HBV RNase H carrying the P790L mutation; test: Recombinant RNase H biochemical assay (FAM/IowaBlack RNA:DNA heteroduplex); settings: qualitative assay
Protocol: HBV RNase H carrying the P790L mutation that is needed to stabilize the recombinant enzyme was purified from E. coli, and RNase H assays in which an RNA:DNA heteroduplex was incubated with the recombinant enzyme were performed. The RNA strand is FAM-labelled, and the DNA strand carries an IowaBlack quencher. Cleavage of the RNA strand releases the FAM moiety from quenching, causing an increase in fluorescence. Performance limitations with the enzyme limit this assay to just qualitative interpretation.

[5] = Figure 1, earlier HBV RNase H inhibitors
[6] = pH 7.4, 200 µM, 2 h, read-out: Papp
[7] = pH 7.4, read-out: Papp Interpretation
[8] = pH 7.4, DMEM-F12 with 10% FBS, 1% DMSO, upper limit 200 µM, read-out: Solubility Limit
[9] = pH 7.4, read-out: Solubility Limit Interpretation
[10] = Hepatitis B virus, HepDES19, 72 h, pH 7.4, HepDES19 cells
[11] = pH 7.4, previously published compounds
[12] = pH 7.4, previously published compound
[13] = pH 7.4, previously published compound, Table 1

| Compound | CC50 at 72 h (MTS cytotoxicity assay) [µM] | Papp at 2 h, 200 µM [2, 6] [nm/s] | Papp at 2 h, 200 µM [2, 7] [nm/s] | solubility (Solubility limit assay; [8]) [µM] | solubility (Solubility limit assay; [9]) [µM] | EC50 [3, 10] [µM] | EC50 [1, 11] [µM] | CC50 (HepDES19 cells; [11]) [µM] | further results |
| --- | --- | --- | --- | --- | --- | --- | --- | --- | --- |
| COc1ccc(CON=C(C)c2c(C)cc(=O)n(O)c2O)cc1 [A24] |  |  |  |  |  |  |  |  | EC50 [1, 5]: 0.29 µM; CC50 (HepDES19 cells; [5]): 102 µM |
| CC(=Nc1ccc(F)c(F)c1)c1c(C)cc(=O)n(O)c1O [Compound 22, 5-(1-((3,4-difluorophenyl)imino)ethyl)-1,6-dihydroxy-4-methylpyridin-2(1H)-one] | 100 | 29.9 | > 10 | > 200 | > 100 | 0.9 |  |  | EC50 ([3]; HepDES19 cells): 0.89 ± 0.4 µM; suppression of RNase H activity ([4]; at 100 µM): ~ 50%; suppression of RNase H activity (in words) [4]: dose-dependent suppression of RNase H activity |
| CC(=NCc1ccccc1Cl)c1c(C)cc(=O)n(O)c1O [Compound 36, 5-(1-((2-chlorobenzyl)imino)ethyl)-1,6-dihydroxy-4-methylpyridin-2(1H)-one] | 52.7 ± 29.3 | 30.4 | > 10 | 167 (≈ 51.1 µg/mL) | > 100 | 2.77 ± 0.8 |  |  |  |
| CC(=NCc1cccc(Cl)c1)c1c(C)cc(=O)n(O)c1O [Compound 37, 5-(1-((3-chlorobenzyl)imino)ethyl)-1,6-dihydroxy-4-methylpyridin-2(1H)-one] | 34 ± 23 | 54.1 | > 10 | > 200 | > 100 | 4.73 ± 4.4 |  |  |  |
| CC(=NCc1ccc(Cl)cc1)c1c(C)cc(=O)n(O)c1O [Compound 38, 5-(1-((4-chlorobenzyl)imino)ethyl)-1,6-dihydroxy-4-methylpyridin-2(1H)-one] | 22.9 ± 7 | 30.7 | > 10 | > 200 | > 100 | 18.9 ± 8.4 |  |  |  |
| CC(=NCc1cccc(F)c1)c1c(C)cc(=O)n(O)c1O [Compound 39, 5-(1-((3-fluorobenzyl)imino)ethyl)-1,6-dihydroxy-4-methylpyridin-2(1H)-one] | 19.3 ± 10.5 | 18.9 | > 10 | > 200 | > 100 | 27.6 ± 3.7 |  |  |  |
| CC(=NCc1ccc(F)cc1)c1c(C)cc(=O)n(O)c1O [Compound 40, 5-(1-((4-fluorobenzyl)imino)ethyl)-1,6-dihydroxy-4-methylpyridin-2(1H)-one] | 15.4 ± 7.4 | 11 | > 10 | > 200 | > 100 | 16.5 ± 3.5 |  |  |  |
| CC(=NCc1ccc(F)c(F)c1)c1c(C)cc(=O)n(O)c1O [Compound 41, 5-(1-((3,4-difluorobenzyl)imino)ethyl)-1,6-dihydroxy-4-methylpyridin-2(1H)-one] | 23.9 ± 11.7 | 25.4 | > 10 | > 200 | > 100 | 10.7 ± 0.5 |  |  |  |
| CC(=NCc1cc(F)cc(F)c1)c1c(C)cc(=O)n(O)c1O [Compound 42, 5-(1-((3,5-difluorobenzyl)imino)ethyl)-1,6-dihydroxy-4-methylpyridin-2(1H)-one] | 82.9 ± 24.6 | 15.3 | > 10 | > 200 | > 100 | 73.7 ± 26.3 |  |  |  |
| CC(=NCCOc1ccc(Cl)cc1)c1c(C)cc(=O)n(O)c1O [Compound 43, 5-(1-((2-(4-chlorophenoxy)ethyl)imino)ethyl)-1,6-dihydroxy-4-methylpyridin-2(1H)-one] | 30.1 ± 12.5 | 8.6 | < 10 | > 200 | > 100 | 17.2 ± 6.6 |  |  |  |
| C/C(=N\OCc1ccccc1Br)c1c(C)cc(=O)n(O)c1O [Compound 46] |  |  |  |  |  |  | 2 ± 1.6 | 80.8 ± 27.5 |  |
| C/C(=N\OCc1cccc(Br)c1)c1c(C)cc(=O)n(O)c1O [Compound 47] |  |  |  |  |  |  | 0.52 ± 0.33 | 78.5 ± 32.4 |  |
| C/C(=N\OCc1ccc(Br)cc1)c1c(C)cc(=O)n(O)c1O [Compound 48] |  |  |  |  |  |  | 1.13 ± 0.19 | 76.7 ± 30.3 |  |
| C/C(=N\OCc1ccccc1Cl)c1c(C)cc(=O)n(O)c1O [Compound 49] |  |  |  |  |  |  | 0.24 ± 0.09 |  |  |
| C/C(=N\OCc1cccc(Cl)c1)c1c(C)cc(=O)n(O)c1O [Compound 50] |  |  |  |  |  |  | 1.35 ± 1.03 | 56.9 ± 31.1 |  |
| C/C(=N\OCc1ccc(Cl)cc1)c1c(C)cc(=O)n(O)c1O [Compound 51] |  |  |  |  |  |  | 0.36 ± 0.24 | 46.6 ± 13.6 |  |
| C/C(=N\OCc1ccccc1F)c1c(C)cc(=O)n(O)c1O [Compound 52] |  |  |  |  |  |  |  |  | EC50 [1, 12]: 0.32 ± 0.2 µM; CC50 (HepDES19 cells; [12]): 90 ± 6 µM |
| C/C(=N\OCc1cccc(F)c1)c1c(C)cc(=O)n(O)c1O [Compound 53] |  |  |  |  |  |  | 0.06 ± 0.01 | 73.9 ± 28.6 |  |
| C/C(=N\c1ccccc1N)c1c(C)cc(=O)n(O)c1O [Compound 54] |  |  |  |  |  |  |  |  | EC50 [1, 13]: 0.69 ± 0.2 µM; CC50 (HepDES19 cells; [13]): 15 ± 7 µM |
